Measured values: PubChem BioAssay (NCI)
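Where inhibition never reached the appropriate level, the endpoint shown equals the highest concentration tested. Otherwise, values were interpolated linearly from a five-concentration, 48-hour dose response in 96-well plates. GI50 is the concentration that inhibits growth by half. TGI is the concentration that stops growth completely.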

Experiments:
Assay in all cases: NCI-60 cell line screen, 48 h
MOLT-4 leukemia = test system: MOLT-4 leukemia
A549 NSCLC = test system: A549 NSCLC
SNB-75 CNS = test system: SNB-75 CNS
SK-OV-3 ovarian = test system: SK-OV-3 ovarian
U251 CNS = test system: U251 CNS
NCI-H226 lung = test system: NCI-H226 lung
SW-620 colon = test system: SW-620 colon
SR leukemia = test system: SR leukemia
A498 renal = test system: A498 renal
EKVX NSCLC = test system: EKVX NSCLC
HT29 colon = test system: HT29 colon
K-562 leukemia = test system: K-562 leukemia
HOP-62 NSCLC = test system: HOP-62 NSCLC
SN12C renal = test system: SN12C renal
MDA-MB-435 = test system: MDA-MB-435
KM12 colon = test system: KM12 colon
HCT-116 colon = test system: HCT-116 colon
SNB-19 CNS = test system: SNB-19 CNS
MDA-MB-231 breast = test system: MDA-MB-231 breast
COLO 205 colon = test system: COLO 205 colon
OVCAR-5 ovarian = test system: OVCAR-5 ovarian
NCI/ADR-RES ovarian = test system: NCI/ADR-RES ovarian
ACHN renal = test system: ACHN renal
SK-MEL-5 melanoma = test system: SK-MEL-5 melanoma
CCRF-CEM leukemia = test system: CCRF-CEM leukemia
UACC-257 melanoma = test system: UACC-257 melanoma
HCT-15 colon = test system: HCT-15 colon
NCI-H522 lung = test system: NCI-H522 lung
OVCAR-8 ovarian = test system: OVCAR-8 ovarian
HS 578T breast = test system: HS 578T breast
SF-539 CNS = test system: SF-539 CNS
UACC-62 melanoma = test system: UACC-62 melanoma
HCC-2998 colon = test system: HCC-2998 colon
NCI-H23 lung = test system: NCI-H23 lung
BT-549 breast = test system: BT-549 breast
DU-145 prostate = test system: DU-145 prostate
SF-268 CNS = test system: SF-268 CNS
SF-295 CNS = test system: SF-295 CNS
RXF 393 renal = test system: RXF 393 renal
786-0 renal = test system: 786-0 renal
PC-3 prostate = test system: PC-3 prostate
TK-10 renal = test system: TK-10 renal
UO-31 renal = test system: UO-31 renal
OVCAR-4 ovarian = test system: OVCAR-4 ovarian
M14 melanoma = test system: M14 melanoma
SK-MEL-28 melanoma = test system: SK-MEL-28 melanoma
HOP-92 NSCLC = test system: HOP-92 NSCLC
NCI-H460 lung = test system: NCI-H460 lung
MCF7 breast = test system: MCF7 breast
HL-60(TB) leukemia = test system: HL-60(TB) leukemia
OVCAR-3 ovarian = test system: OVCAR-3 ovarian
SK-MEL-2 melanoma = test system: SK-MEL-2 melanoma
RPMI-8226 leukemia = test system: RPMI-8226 leukemia
IGROV1 ovarian = test system: IGROV1 ovarian
LOX IMVI melanoma = test system: LOX IMVI melanoma

For `COc1cc2cc(c1Cl)N(C)C(=O)C[C@H](OC(=O)[C@H](C)N(C)C(=O)CCS)C[C@]1(C)O[C@H]1[C@H](C)[C@@H]1C[C@@](O)(NC(=O)O1)[C@H](OC)/C=C/C=C(\C)C2`, the GI50 (MOLT-4 leukemia) was < 5 nM, the TGI (MOLT-4 leukemia) was > 50000 nM and the GI50 (A549 NSCLC) was 7.52 nM. The TGI (A549 NSCLC) was > 50000 nM, the GI50 (SNB-75 CNS) was < 5 nM and the TGI (SNB-75 CNS) was > 50000 nM. The GI50 (SK-OV-3 ovarian) was < 5 nM, the TGI (SK-OV-3 ovarian) was > 50000 nM and the GI50 (U251 CNS) was < 5 nM. For the same molecule, the TGI (U251 CNS) was > 32900 nM, the GI50 (NCI-H226 lung) was 38 nM and the TGI (NCI-H226 lung) was > 50000 nM. For the same molecule, the GI50 (SW-620 colon) was < 5 nM, the TGI (SW-620 colon) was > 50000 nM and the GI50 (SR leukemia) was < 5 nM. For the same molecule, the TGI (SR leukemia) was > 50000 nM, the GI50 (A498 renal) was < 5 nM and the TGI (A498 renal) was 496 nM. The GI50 (EKVX NSCLC) was 9.51 nM, the TGI (EKVX NSCLC) was > 50000 nM and the GI50 (HT29 colon) was < 5 nM. The TGI (HT29 colon) was > 50000 nM, the GI50 (K-562 leukemia) was < 5 nM and the TGI (K-562 leukemia) was > 50000 nM. The GI50 (HOP-62 NSCLC) was < 5 nM, the TGI (HOP-62 NSCLC) was > 50000 nM and the GI50 (SN12C renal) was < 5 nM. For the same molecule, the TGI (SN12C renal) was > 50000 nM, the GI50 (MDA-MB-435) was < 5 nM and the TGI (MDA-MB-435) was < 5 nM. The GI50 (KM12 colon) was < 5 nM, the TGI (KM12 colon) was > 50000 nM and the GI50 (HCT-116 colon) was < 5 nM. For the same molecule, the TGI (HCT-116 colon) was 5780 nM, the GI50 (SNB-19 CNS) was < 5 nM and the TGI (SNB-19 CNS) was > 50000 nM. The GI50 (MDA-MB-231 breast) was 6.81 nM, the TGI (MDA-MB-231 breast) was 1610 nM and the GI50 (COLO 205 colon) was < 5 nM. For the same molecule, the TGI (COLO 205 colon) was 25.7 nM, the GI50 (OVCAR-5 ovarian) was 9.94 nM and the TGI (OVCAR-5 ovarian) was > 50000 nM. The GI50 (NCI/ADR-RES ovarian) was 24.4 nM, the TGI (NCI/ADR-RES ovarian) was 34800 nM and the GI50 (ACHN renal) was < 5 nM. For the same molecule, the TGI (ACHN renal) was > 50000 nM, the GI50 (SK-MEL-5 melanoma) was < 5 nM and the TGI (SK-MEL-5 melanoma) was 62.8 nM. For the same molecule, the GI50 (CCRF-CEM leukemia) was < 5 nM, the TGI (CCRF-CEM leukemia) was > 50000 nM and the GI50 (UACC-257 melanoma) was > 50000 nM. The TGI (UACC-257 melanoma) was > 50000 nM, the GI50 (HCT-15 colon) was 6.24 nM and the TGI (HCT-15 colon) was > 50000 nM. For the same molecule, the GI50 (NCI-H522 lung) was < 5 nM, the TGI (NCI-H522 lung) was 42.6 nM and the GI50 (OVCAR-8 ovarian) was 8.3 nM. For the same molecule, the TGI (OVCAR-8 ovarian) was > 50000 nM, the GI50 (HS 578T breast) was 16.4 nM and the TGI (HS 578T breast) was > 32000 nM. The GI50 (SF-539 CNS) was < 5 nM, the TGI (SF-539 CNS) was 67.4 nM and the GI50 (UACC-62 melanoma) was < 5 nM. The TGI (UACC-62 melanoma) was > 50000 nM, the GI50 (HCC-2998 colon) was 6.09 nM and the TGI (HCC-2998 colon) was > 50000 nM. The GI50 (NCI-H23 lung) was 8.04 nM, the TGI (NCI-H23 lung) was > 50000 nM and the GI50 (BT-549 breast) was < 5 nM. For the same molecule, the TGI (BT-549 breast) was 134 nM, the GI50 (DU-145 prostate) was < 5 nM and the TGI (DU-145 prostate) was > 50000 nM. The GI50 (SF-268 CNS) was 9.54 nM, the TGI (SF-268 CNS) was > 50000 nM and the GI50 (SF-295 CNS) was < 5 nM. The GI50 (RXF 393 renal) was 6.44 nM, the TGI (RXF 393 renal) was > 50000 nM and the GI50 (786-0 renal) was 9.06 nM. For the same molecule, the TGI (786-0 renal) was > 24700 nM, the GI50 (PC-3 prostate) was < 5 nM and the TGI (PC-3 prostate) was > 50000 nM. For the same molecule, the GI50 (TK-10 renal) was > 17100 nM, the TGI (TK-10 renal) was > 50000 nM and the GI50 (UO-31 renal) was 28.2 nM. For the same molecule, the TGI (UO-31 renal) was > 50000 nM, the GI50 (OVCAR-4 ovarian) was 21.8 nM and the TGI (OVCAR-4 ovarian) was > 50000 nM. For the same molecule, the GI50 (M14 melanoma) was < 5 nM, the TGI (M14 melanoma) was < 5 nM and the GI50 (SK-MEL-28 melanoma) was 3470 nM. The TGI (SK-MEL-28 melanoma) was > 50000 nM, the GI50 (HOP-92 NSCLC) was < 5 nM and the TGI (HOP-92 NSCLC) was 49600 nM. For the same molecule, the GI50 (NCI-H460 lung) was < 5 nM, the TGI (NCI-H460 lung) was > 30800 nM and the GI50 (MCF7 breast) was < 5 nM. The TGI (MCF7 breast) was > 50000 nM, the GI50 (HL-60(TB) leukemia) was < 5 nM and the TGI (HL-60(TB) leukemia) was < 5 nM. For the same molecule, the GI50 (OVCAR-3 ovarian) was < 5 nM, the TGI (OVCAR-3 ovarian) was > 50000 nM and the GI50 (SK-MEL-2 melanoma) was < 5 nM. For the same molecule, the TGI (SK-MEL-2 melanoma) was > 50000 nM, the GI50 (RPMI-8226 leukemia) was < 5 nM and the TGI (RPMI-8226 leukemia) was 21600 nM. The GI50 (IGROV1 ovarian) was 7.62 nM, the TGI (IGROV1 ovarian) was > 50000 nM and the GI50 (LOX IMVI melanoma) was < 5 nM. For the same molecule, the TGI (LOX IMVI melanoma) was > 22900 nM.
